One data set deals with T1, P‐gp (P‐glycoprotein) (Homo sapiens, UniProt P08183).
T1 construct: gene ABCB1; endogenous transporter in Caco-2 cell monolayers
The data set can be described thus: transport inhibition in Caco-2 monolayers. It is filed as cell-based. From the text: transport inhibition in Caco-2 monolayers on P‐gp (P‐glycoprotein)
A general note: Caco-2 monolayers are a common model of the intestinal barrier.

In the next data set the target is T2, OATP1B1 (Homo sapiens, UniProt Q9Y6L6).
T2 construct: gene SLCO1B1; expressed in HEK293 cells
T2 sequence (Q9Y6L6 1-691): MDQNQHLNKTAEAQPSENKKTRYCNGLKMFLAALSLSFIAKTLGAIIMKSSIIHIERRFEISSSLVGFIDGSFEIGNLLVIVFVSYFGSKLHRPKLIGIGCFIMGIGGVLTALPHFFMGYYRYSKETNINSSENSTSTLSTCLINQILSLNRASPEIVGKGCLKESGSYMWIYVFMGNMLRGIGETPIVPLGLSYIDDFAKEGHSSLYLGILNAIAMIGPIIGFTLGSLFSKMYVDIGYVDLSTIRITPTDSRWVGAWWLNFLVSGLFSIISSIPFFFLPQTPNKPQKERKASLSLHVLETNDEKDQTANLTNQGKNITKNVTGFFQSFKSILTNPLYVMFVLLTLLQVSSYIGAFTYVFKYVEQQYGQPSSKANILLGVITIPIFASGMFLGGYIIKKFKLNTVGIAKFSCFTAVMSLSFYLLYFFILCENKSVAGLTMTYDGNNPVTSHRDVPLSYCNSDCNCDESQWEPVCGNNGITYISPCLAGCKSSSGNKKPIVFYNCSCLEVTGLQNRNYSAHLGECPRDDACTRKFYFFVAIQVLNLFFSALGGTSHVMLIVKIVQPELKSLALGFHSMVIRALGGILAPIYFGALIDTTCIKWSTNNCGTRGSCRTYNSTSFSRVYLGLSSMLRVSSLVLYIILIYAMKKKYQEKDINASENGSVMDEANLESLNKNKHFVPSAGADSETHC
The experiment in a line: uptake inhibition in HEK293 cells expressing the transporter. The format is cell-based. From the text:
uptake inhibition in HEK293 cells expressing the transporter on OATP1B1

The text below walks through data of publication PMC11783400, “Assessment of Potential Drug–Drug Interactions for Novel Oral Melanocortin‐1 Receptor Agonist Dersimelagon” (Pharmacology Research & Perspectives, 2025).

T1 sequence (P08183 whole entry): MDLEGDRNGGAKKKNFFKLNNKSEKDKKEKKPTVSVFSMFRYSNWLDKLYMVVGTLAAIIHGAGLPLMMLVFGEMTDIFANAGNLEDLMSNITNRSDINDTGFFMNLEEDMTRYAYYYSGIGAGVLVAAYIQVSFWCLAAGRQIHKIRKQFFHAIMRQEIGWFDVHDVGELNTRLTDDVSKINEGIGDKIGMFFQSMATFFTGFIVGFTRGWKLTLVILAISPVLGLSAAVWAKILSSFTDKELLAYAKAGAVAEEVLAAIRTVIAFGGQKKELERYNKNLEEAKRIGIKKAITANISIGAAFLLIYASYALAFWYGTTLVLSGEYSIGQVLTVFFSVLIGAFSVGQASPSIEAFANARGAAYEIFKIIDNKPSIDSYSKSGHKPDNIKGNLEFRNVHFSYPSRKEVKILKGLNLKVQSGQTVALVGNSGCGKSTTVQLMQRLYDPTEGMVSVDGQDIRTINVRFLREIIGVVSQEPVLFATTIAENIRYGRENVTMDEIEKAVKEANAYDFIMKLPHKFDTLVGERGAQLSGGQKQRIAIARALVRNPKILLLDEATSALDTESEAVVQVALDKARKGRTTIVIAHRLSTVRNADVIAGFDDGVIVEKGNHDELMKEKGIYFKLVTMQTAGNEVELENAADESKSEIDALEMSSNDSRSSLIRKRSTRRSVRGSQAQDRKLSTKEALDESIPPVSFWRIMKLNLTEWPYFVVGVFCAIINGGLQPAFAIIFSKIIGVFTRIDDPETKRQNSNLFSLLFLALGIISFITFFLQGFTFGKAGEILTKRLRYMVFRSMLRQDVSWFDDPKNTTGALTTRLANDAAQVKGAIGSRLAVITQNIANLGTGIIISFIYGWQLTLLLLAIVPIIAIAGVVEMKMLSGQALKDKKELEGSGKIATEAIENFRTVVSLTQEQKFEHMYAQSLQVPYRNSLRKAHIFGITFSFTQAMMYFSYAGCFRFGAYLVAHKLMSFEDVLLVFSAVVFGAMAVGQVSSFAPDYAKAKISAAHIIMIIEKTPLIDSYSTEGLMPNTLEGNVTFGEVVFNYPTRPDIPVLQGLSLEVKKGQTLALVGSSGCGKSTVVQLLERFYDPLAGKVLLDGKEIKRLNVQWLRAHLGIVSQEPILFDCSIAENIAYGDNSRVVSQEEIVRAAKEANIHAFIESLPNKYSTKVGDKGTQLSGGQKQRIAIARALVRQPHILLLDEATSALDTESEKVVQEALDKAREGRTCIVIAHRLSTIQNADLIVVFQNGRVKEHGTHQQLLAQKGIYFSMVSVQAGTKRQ

Regarding `COC[C@H]1CN(C(=O)[C@]2(F)CN(C3CCCC3)C[C@H]2c2ccc(OC)cc2)C[C@@H]1c1ccc(C(F)(F)F)cc1N1CCC(C(=O)O)CC1` [dersimelagon], the IC50 against P‐gp (P‐glycoprotein) was found to be 349 nM; against OATP1B1 it was 158 nM.

By IC50 is commonly meant the concentration that gives 50% inhibition.
